According to US20100087413A1, “Prevention and treatment of inflammation-induced and/or immune-mediated bone loss” (priority 2003, published 2010):
Where two headings read alike, the source gives them in different places. Marks after values point to notes of the source that are not given here.

Tests used:
[1] = molecular target: T1, human 11β-HSD1 (Homo sapiens, UniProt P28845); assay: 11β-HSD1 reductase activity (conversion of radiolabelled cortisone to cortisol) in lysates of stably transfected HEK-293 cells; type: biochemical; conditions: for 11β-HSD1 % of control: 20 μM compound, 100 nM cortisone substrate, HEK-293 lysate
T1 construct: expressed in transfected cells; host or cells: HEK-293 cells, stably transfected; cell lysate
Procedure: (§1) Cells were grown in 10 cm dishes to 80% confluence and incubated for 16 h in steroid-free medium (charcoal-treated fetal calf serum (FCS) from HyClone, Logan, Utah). Cells were rinsed once with phosphate-buffered saline (PBS), detached and centrifuged for 3 min at 150×g. The supernatant was removed and the cell pellet quick-frozen in a dry-ice ethanol bath. At the day of experiment, cell pellets were resuspended in buffer TS2 (100 mM NaCl, 1 mM EGTA, 1 mM EDTA, 1 mM MgCl2, 250 mM sucrose, 20 mM Tris-HCl, pH 7.4), sonicated and activities determined immediately. The rate of conversion of cortisol to cortisone or the reverse reaction was determined in 96-well optical PCR reaction plates (Applied Biosystems, Foster City, Calif.) in a final volume of 22 μl, and the tubes were capped during the reaction to avoid evaporation.
Reactions were initiated simultaneously by adding 10 μl of cell lysate and 12 μl of TS2 buffer containing the appropriate concentration of the inhibitory compound to be tested, NADPH, 30 nCi of [1,2,6,7-^3H]-cortisone and unlabeled cortisone, whereby final concentrations were 400 μM NADPH and 100 nM cortisone. Activities were determined immediately after cell disruption by measuring the conversion of radiolabeled cortisone to cortisol for 10 min.
(§2) Enzyme kinetics were analyzed by non-linear regression using Data Analysis Toolbox (MDL Information Systems Inc.) assuming first-order rate kinetics.
(§3) Assay with 20 μM of the corresponding compound in the reaction mixture, added simultaneously with the substrate:
(§4) Determination of IC50 values, using 7 different inhibitor concentrations at factor 2 intervals: […]

[2] = molecular target: T2, human 11β-HSD2 (Homo sapiens, UniProt P80365); assay: 11β-HSD2 oxidase activity (conversion of radiolabelled cortisol to cortisone) in lysates of stably transfected HEK-293 cells; type: biochemical; conditions: for 11β-HSD2 % of control: 20 μM compound, 25 nM cortisol substrate, HEK-293 lysate
T2 construct: expressed in transfected cells; host or cells: HEK-293 cells, stably transfected; cell lysate
T2 sequence (P80365 1-405): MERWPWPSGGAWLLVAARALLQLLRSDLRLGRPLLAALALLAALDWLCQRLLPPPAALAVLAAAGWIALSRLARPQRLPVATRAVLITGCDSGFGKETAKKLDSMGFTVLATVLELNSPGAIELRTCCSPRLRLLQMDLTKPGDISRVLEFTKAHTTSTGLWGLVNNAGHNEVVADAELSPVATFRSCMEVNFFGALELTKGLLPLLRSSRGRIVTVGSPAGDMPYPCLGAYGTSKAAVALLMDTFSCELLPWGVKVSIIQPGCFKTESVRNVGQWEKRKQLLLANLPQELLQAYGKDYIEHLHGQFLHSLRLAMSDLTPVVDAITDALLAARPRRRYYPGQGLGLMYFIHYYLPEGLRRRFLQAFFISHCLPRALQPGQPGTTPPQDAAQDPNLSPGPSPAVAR
Procedure: as §1
Reactions were initiated by simultaneously adding 10 μl of cell lysate and 12 μl of TS2 buffer containing the appropriate concentration of the inhibitory compound to be tested, NAD^+, 30 nCi of [1,2,6,7-^3H]-cortisol and unlabeled cortisol. […] Stock solutions of the inhibitors in methanol or DMSO were diluted in TS2 buffer to yield the appropriate concentrations, whereby the concentration of methanol or DMSO in the reactions were kept below 0.1%. Control reactions with or without 0.1% of the solvent were performed. Incubation was at 37° C. for 10 min with shaking, reactions were terminated by adding 10 μl of stop solution containing 2 mM of unlabeled cortisol and cortisone dissolved in methanol. The conversion of radiolabeled cortisol was determined by separation of cortisol and cortisone using TLC and a solvent system of 9:1 (v/v) chloroform:methanol, followed by scintillation counting.
as §2, §3, §4

[3] = Mittelwert (mean) of determinations 1-3, read-out: IC 50 11β-HSD1, Mittelwert
[4] = 7 inhibitor concentrations at factor 2 intervals
[5] = Mittelwert (mean) of the determinations, read-out: IC 50 11β-HSD2, Mittelwert

T1 sequence (P28845 whole entry): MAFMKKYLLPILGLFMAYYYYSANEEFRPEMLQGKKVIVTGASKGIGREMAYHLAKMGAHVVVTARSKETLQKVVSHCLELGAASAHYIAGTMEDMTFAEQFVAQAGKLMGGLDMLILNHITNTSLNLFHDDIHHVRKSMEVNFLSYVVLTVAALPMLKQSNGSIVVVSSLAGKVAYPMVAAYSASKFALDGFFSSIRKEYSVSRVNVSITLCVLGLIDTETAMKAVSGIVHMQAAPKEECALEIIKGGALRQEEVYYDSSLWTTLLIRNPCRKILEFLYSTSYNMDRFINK

| Structure (SMILES) | 11β-HSD1 % of control [1] | 11β-HSD2 % of control [2] | other results |
| --- | --- | --- | --- |
| CCN(CC(O)COc1cc(C)c(Cl)c(C)c1)S(=O)(=O)O (stereo not shown) [BNW1] | 102.1 % of control | 96.77 % of control |  |
| COc1ccc(OC)c(C2C(C(=O)c3ccc(Br)cc3)=C(O)C(=O)N2CCCn2ccnc2)c1 (stereo not shown) [BNW2] | 78.84 % of control | 77.95 % of control |  |
| CCCCOc1ccc(C(=O)C2=C(O)C(=O)N(CCOC)C2c2cccnc2)c(C)c1 (stereo not shown) [BNW3] | 60.25 % of control | 53.57 % of control |  |
| Cc1nn(CC(=O)Nc2sc(C)c(C)c2C(N)=O)c(C)c1[N+](=O)[O-] [BNW4] | 82.24 % of control | 95.05 % of control |  |
| Cc1n[nH]c(O)c1C(c1ccc(-c2ccc(Cl)c(C(=O)O)c2)o1)c1c(O)n[nH]c1C [BNW5] | 69.75 % of control | 97.47 % of control |  |
| COc1ccc(C(=O)CNc2cccc(Cl)c2Cl)c(C(F)(F)F)c1 [BNW6] | 79.64 % of control | 145 % of control |  |
| COc1ccc(CCNC(=O)C23CCC(C)(C(=O)C2=O)C3(C)C)cc1OC (stereo not shown) [BNW7] | 9.593* % of control | 139.5 % of control | IC50 [1, 3]: 2030 nM; IC 50 11β-HSD2, determination 1 [2, 4]: did not inhibit; IC 50 11β-HSD2, determination 2 ([2]; determination 2, 7 inhibitor concentrations at factor 2 intervals): did not inhibit; IC 50 11β-HSD2, determination 3 ([2]; determination 3, 7 inhibitor concentrations at factor 2 intervals): did not inhibit |
| NC(=O)c1c(NC(=O)C2CC=CCC2C(=O)O)sc2c1CCCCC2 (stereo not shown) [BNW8] | 41.71 % of control | 102.7 % of control |  |
| COCCC1C(=O)C(O)=C(C(=O)c2ccc(OC)c(C)c2)C1c1ccc(Cl)cc1Cl (stereo not shown) [BNW9] | 30.65 % of control | 77.43 % of control |  |
| Cc1cccc(C)c1C1C(SCC(=O)Nc2c(Cl)cccc2Cl)=NN=C1c1cccc([S+]([O-])N(C)C)c1 (stereo not shown) [BNW11] | 70.1 % of control | 120.9 % of control |  |
| CCN(CC)S(=O)(=O)c1ccc(Cl)c(C(=O)Nc2nc3ccc(S(C)(=O)=O)cc3s2)c1 [BNW12] | 85.36 % of control | 132.1 % of control |  |
| COC(=O)[C@@]1(C)CC[C@]2(C)CC[C@]3(C)C(=CC(=O)[C@@H]4[C@@]5(C)CC[C@H](Oc6ccccc6C(=O)O)C(C)(C)[C@@H]5CC[C@]43C)[C@@H]2C1 [BNW13] | 3.879* % of control | 14.37* % of control | IC50 [1, 3]: 691 nM; IC50 [2, 5]: 281 nM; IC 50 11β-HSD2, determination 1 [2, 4]: out of range |
| CC1(C)[C@@H](OCO)CC[C@]2(C)[C@H]3C(=O)C=C4C5=C[C@@](C)(C(=O)O)CC[C@]5(C)CC[C@@]4(C)[C@]3(C)CC[C@@H]12 [BNW15] | 50.37 % of control | 56.95 % of control |  |
| CC(=O)OC1CC[C@]2(C)C3=C(C(=O)C[C@H]2C1(C)C)[C@]1(C)CCC(C(C)CCC(=O)O)[C@@]1(C)CC3=O (stereo partly shown) [BNW16] | 2.708* % of control | 27.37 % of control | IC50 [1, 3]: 144 nM; IC50 [2, 5]: 3950 nM; IC 50 11β-HSD2, determination 1 [2, 4]: out of range |
| CCOc1ccc(C2c3cc(OCC)c(OCC)cc3CC(=O)N2c2ccc(C(=O)O)cc2)cc1OCC (stereo not shown) [BNW17] | 88.22 % of control | 120.1 % of control |  |
| CSc1nc2cc(C)c(C)cc2n1C1OC(CO)C(O)C1O (stereo not shown) [BNW18] | 92.03 % of control | 82.81 % of control |  |
| COCCN1C(=O)C(O)=C(C(=O)c2ccc(OC)c(C)c2)C1c1ccc(C)cc1 (stereo not shown) [BNW20] | 46.83 % of control | 120.7 % of control |  |
| COc1ccc(C(=O)C2=C(O)C(=O)N(CCCn3ccnc3)C2c2ccccc2)cc1Cl (stereo not shown) [BNW21] | 48.94 % of control | 121.6 % of control |  |
| CCOc1ccc(C2C(C(=O)c3ccc(Cl)cc3)=C(O)C(=O)N2CCCn2ccnc2)cc1OCC (stereo not shown) [BNW22] | 41.32 % of control | 104.3 % of control |  |
| COc1cccc(/C=N/NC(=O)CSCc2ccccc2C)c1OC [BNW23] | 85.07 % of control | 132.6608 % of control |  |
| C[C@H]1CC[C@]2(C)[C@H]3C(=O)C=C4[C@@H]5C[C@@](C)(C(=O)O)CC[C@]5(C)CC[C@@]4(C)[C@]3(C)CC[C@H]2C1(C)C [BNW25] | 2.884* % of control | 13.93* % of control | IC50 [1, 3]: 172 nM; IC50 ([1]; determination 1, 7 inhibitor concentrations at factor 2 intervals, read-out: IC 50 11β-HSD1, determination 1): 147 nM; IC50 ([1]; determination 2, 7 inhibitor concentrations at factor 2 intervals, read-out: IC 50 11β-HSD1, determination 2): 206 nM; IC50 ([1]; determination 3, 7 inhibitor concentrations at factor 2 intervals, read-out: IC 50 11β-HSD1, determination 3): 161 nM; IC50 [2, 5]: 59.7 nM; IC 50 11β-HSD2, determination 1 [2, 4]: out of range; IC50 ([2]; determination 2, 7 inhibitor concentrations at factor 2 intervals, read-out: IC 50 11β-HSD2, determination 2): 54.6 nM; IC50 ([2]; determination 3, 7 inhibitor concentrations at factor 2 intervals, read-out: IC 50 11β-HSD2, determination 3): 64.9 nM |
| COc1ccc(CNC(=O)C2CCC(=O)N2C2CCCC2)cc1OC (stereo not shown) [BNW26] | 94.07 % of control | 136.8 % of control |  |
| COc1cc2c(cc1OC)C(COc1ccc([N+](=O)[O-])cc1)N(C(=O)c1ccc(Cl)c([N+](=O)[O-])c1)CC2 (stereo not shown) [BNW27] | 78.64 % of control | 126.4 % of control |  |
| COc1cc(/C=N/NC(=O)CSc2nc3ccccc3n2Cc2ccc(C)cc2)cc(OC)c1OC(C)=O [BNW28] | 76.73 % of control | 137 % of control |  |
| CCN(CC)S(=O)(=O)c1ccc(OC)c(-c2nnc(-c3cc(S(=O)(=O)N(CC)CC)ccc3OC)o2)c1 [BNW29] | 75.29 % of control | 115.4 % of control |  |
| CCC(Sc1nnc(-c2ccc(OC)c(OC)c2)c(-c2ccc(OC)c(OC)c2)n1)C(=O)N(CC)CC (stereo not shown) [BNW30] | 48.36 % of control | 140 % of control |  |
